{"source": "paper PMC6337650", "about": "(Molecules, 2018)", "key": {"[1]": {"assay": "MTT antiproliferative assay, HCT-116", "format": "cell-based, human", "details": "human, HCT-116 colorectal cancer cells versus normal L02 cells; HCT-116 vs L02", "method_in_brief": "(§1)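 Cells seeded at 9 × 10^3 per well, allowed 24 h to adhere, then exposed 48 h to compound at 1, 10, 50 and 100 µM. MTT added to 2 mg/mL for 4 h, formazan dissolved in DMSO, OD read at 492 nm; inhibition calculated relative to untreated and blank wells.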"}, "HCT-116 cells [2]": {"tested_on": "HCT-116 cells", "assay": "MTT antiproliferative assay, HCT-116", "format": "cell-based, human", "method_in_brief": "as §1"}, "[3]": {"assay": "MTT antiproliferative assay, BEL-7402", "format": "cell-based, human", "details": "human, BEL-7402 liver cancer cells versus normal L02 cells; BEL-7402 vs L02", "method_in_brief": "as §1"}, "BEL-7402 cells": {"tested_on": "BEL-7402 cells", "assay": "MTT antiproliferative assay, BEL-7402", "format": "cell-based, human", "method_in_brief": "as §1"}, "[4]": {"assay": "MTT antiproliferative assay, HepG2", "format": "cell-based, human", "details": "human, HepG2 liver cancer cells versus normal L02 cells; HepG2 vs L02", "method_in_brief": "as §1"}, "HepG2 cells": {"tested_on": "HepG2 cells", "assay": "MTT antiproliferative assay, HepG2", "format": "cell-based, human", "method_in_brief": "as §1"}, "L02 cells": {"tested_on": "L02 cells", "assay": "MTT assay on normal liver cells L02", "format": "cell-based", "details": "Homo sapiens", "experimental": "The antiproliferative activity of the target compounds against a normal L02 cell line and the three different human cancer cell lines viz. colorectal (HCT-116), liver (BEL-7402) and liver (HepG2) were evaluated using a standard MTT-based colorimetric assay. All cell lines were obtained from the Key Laboratory of Natural Resources and Functional Molecules of the Changbai Mountain (Yanbian University, Jilin, China) and maintained in Dulbecco’s modified Eagle’s medium (DMEM) and RPMI Media 1640 (RPMI1640), supplemented with 10% fetal bovine serum (FBS) at 37 °C in a humidified atmosphere containing 5% CO2.\nCells were plated in 96-well plates at appropriate densities to ensure exponential growth throughout the experimental period (9 × 10^3 cells per well) and then allowed to adhere for 24 h. Cells were then treated for 48 h with four serial concentrations (1, 10, 50 and 100 µM) of each compound. […] After 48 h of incubation, 10 µL of MTT solution was added to each well to a final concentration of 2 mg/mL. Plates were then incubated for a further 4 h. After incubation, the MTT solution was removed and 150 µL of DMSO was added to each well for coloration. The plates were shaken vigorously for 10 min at room temperature to ensure complete solubilization. The optical density (OD) was read on a microplate reader (ELx800, BioTek, Highland Park, Winooski, VT, USA) at a wavelength of 492 nm and the data were subsequently analyzed. The percentage of cell growth inhibition was calculated from the following equation: Inhibitory rate (%) = [(1 − (ODtreated-ODblank)/(ODcontrol-ODblank)] × 100.(1)"}, "HCT-116 cells [5]": {"tested_on": "HCT-116 cells", "assay": "Apoptosis by annexin V-FITC/propidium iodide flow cytometry", "format": "cell-based, human", "details": "24 h; for percentage of total apoptotic cells (UR + LR): control 5.98%", "experimental": "Apoptosis was detected using an Apoptosis Detection Kit (Invitrogen, Eugene, OR, USA). In brief, cells were cultured in 6-well plates (5.0 × 10^5 cells per well) and incubated at 37 °C for 24 h. Cells with exponential growth were then incubated with compound 5d at 5 and 15 µM. Following 24 h of incubation, the cells were collected, washed twice with PBS and once with 1 × binding buffer and then stained with […] of annexin V-FITC and […] of PI 5mg/mL in 1 × binding buffer for 30 min at room temperature in the dark. Apoptotic cells were enumerated using a FACSCalibur flow cytometer with Cell Quest software (Becton–Dickinson, Franklin Lakes, NJ, USA)."}, "Cyclin A": {"tested_on": "Cyclin A", "assay": "Western blot, cyclin A in HCT-116 cells", "format": "cell-based, human", "details": "HCT-116, 5, 10 and 15 μM, 24 h, concentration-dependent", "experimental": "(§2) HCT-116 cells were cultured with different concentrations of compound 5d for 24 h. Then, the floating cells was collected and washed two times with ice cold PBS. The pellet was resuspended in lysis buffer. After the cells were lysed on ice for 20 min, lysates were centrifuged at 12,000 rpm at 4 °C for 15 min. The protein concentration in the supernatant was determined using BCA protein assay reagents. Equal amounts of protein (50 μg) were resolved using sodium dodecyl sulphate-polyacrylamide gel electrophoresis (SDS-PAGE) (8−12% acrylamide gels) and transferred to a PVDF Hybond-P membrane. Membranes were blocked with PBS containing 5% non-fat milk for 1 h at room temperature. Membranes were then incubated with primary antibodies against Cyclin A (ENT1167, Elabscience, Wuhan, China), Cyclin E1 (ENT1176, Elabscience, Wuhan, China), Cyclin B1 (ENT1169, Elabscience, Wuhan, China) and β-actin (ENM0028, Elabscience, Wuhan, China), with gentle rotation overnight at 4 °C. Membranes were next incubated with fluorescent secondary antibodies for 2 h. Proteins were detected by electrochemiluminescence (Bio-Rad, Hercules, CA, USA)."}, "Cyclin E1": {"tested_on": "Cyclin E1", "assay": "Western blot, cyclin E1 in HCT-116 cells", "format": "cell-based, human", "details": "HCT-116, 5, 10 and 15 μM, 24 h, concentration-dependent", "experimental": "as §2"}, "Cyclin B1": {"tested_on": "Cyclin B1", "assay": "Western blot, cyclin B1 in HCT-116 cells", "format": "cell-based, human", "details": "HCT-116, 5, 10 and 15 μM, 24 h, concentration-dependent", "experimental": "as §2"}, "[6]": {"details": "IC50 on normal cells (L02)/IC50 on cancer cells"}}, "note": "Where two headings read alike, the source gives them in different places."}
{"smiles": "Cc1ccc(-n2cc(CNC(=O)COC(=O)[C@]3(C)CCC[C@@]4(C)[C@@H]5CC[C@@]6(C)C[C@]5(CC[C@@H]43)CC6=O)nn2)cc1", "note": "[Compound 5d, 2-oxo-2-(((1-(p-tolyl)-1H-1,2,3-triazol-4-yl)methyl)amino)ethyl(4R,4aS,6aR,9S,11aR,11bS)-4,9,11b-trimethyl-8-oxotetradecahydro-6a,9-methanocyclohepta[a]naphthalene-4-carboxylate]", "values": [{"measurement": "selectivity ratio at 48 h", "setting": "[1]", "value": 38.2}, {"measurement": "inhibition at 100 µM", "setting": "HCT-116 cells [2]; Homo sapiens, HCT-116, 100 μM, 48 h, MTT, mean ± SD, n=3, read-out: % Growth Inhibition at 100 μM HCT-116", "value": "84.6 ± 0.96", "unit": "%"}, {"measurement": "IC50", "setting": "HCT-116 cells [2]; Homo sapiens, HCT-116, 48 h, MTT, mean ± SD, n=3", "value": "5.38 ± 0.26", "unit": "µM"}, {"measurement": "Selectivity Index HCT-116", "setting": "HCT-116 cells [2]; [6]", "value": 29.93}, {"measurement": "fold more active than 5-FU", "setting": "HCT-116 cells [2]; against HCT-116 cells", "value": 4.6, "unit": "fold"}, {"measurement": "selectivity ratio at 48 h", "setting": "[3]", "value": 11.2}, {"measurement": "inhibition at 100 µM", "setting": "BEL-7402 cells; Homo sapiens, Bel-7402, 100 μM, 48 h, MTT, mean ± SD, n=3, read-out: % Growth Inhibition at 100 μM BEL-7402", "value": "86.5 ± 0.87", "unit": "%"}, {"measurement": "IC50", "setting": "BEL-7402 cells; Homo sapiens, Bel-7402, 48 h, MTT, mean ± SD, n=3", "value": "15.9 ± 0.41", "unit": "µM"}, {"measurement": "Selectivity Index BEL-7402", "setting": "BEL-7402 cells; [6]", "value": 10.12}, {"measurement": "fold more active than 5-FU", "setting": "BEL-7402 cells; against BEL-7402 cells", "value": 1.3, "unit": "fold"}, {"measurement": "selectivity ratio at 48 h", "setting": "[4]", "value": 22}, {"measurement": "inhibition at 100 µM", "setting": "HepG2 cells; Homo sapiens, HepG2, 100 μM, 48 h, MTT, mean ± SD, n=3, read-out: % Growth Inhibition at 100 μM HepG2", "value": "82.8 ± 0.86", "unit": "%"}, {"measurement": "IC50", "setting": "HepG2 cells; Homo sapiens, HepG2, 48 h, MTT, mean ± SD, n=3", "value": "8.92 ± 0.44", "unit": "µM"}, {"measurement": "Selectivity Index HepG2", "setting": "HepG2 cells; [6]", "value": 18.05}, {"measurement": "fold more active than 5-FU", "setting": "HepG2 cells; against HepG2 cells", "value": 2.6, "unit": "fold"}, {"measurement": "IC50", "setting": "L02 cells; normal cell line, Table 3, read-out: (IC50, μM) L02", "value": "161 ± 1.96", "unit": "µM"}, {"measurement": "IC50", "setting": "L02 cells; normal liver cells, 48 h, MTT, Table 2, read-out: IC50 Values (μM) L02", "value": "> 100", "unit": "µM"}, {"measurement": "percentage of total apoptotic cells (UR + LR)", "setting": "HCT-116 cells [5]; 5 μM", "value": 7.67, "unit": "%"}, {"measurement": "percentage of total apoptotic cells (UR + LR)", "setting": "HCT-116 cells [5]; 15 μM", "value": 24.94, "unit": "%"}, {"measurement": "dead cells (UL)", "setting": "HCT-116 cells [5]; 15 μM, control 8.84%", "value": 49.22, "unit": "%"}, {"measurement": "cyclin A protein level", "setting": "Cyclin A", "value": "decreased"}, {"measurement": "cyclin E1 protein level", "setting": "Cyclin E1", "value": "decreased"}, {"measurement": "cyclin B1 protein level", "setting": "Cyclin B1", "value": "increasing"}]}
